In publication doi:10.1101/2020.06.11.145995v1 (biorxiv, 2020):
Where two headings read alike, the source gives them in different places.

Key:
Assay in all cases: biochemical
MKK7 = MKK7 (Homo sapiens, UniProt O14733)
NDR1 = NDR1 (Homo sapiens, UniProt Q15208)
NEK5 = NEK5 (Homo sapiens, UniProt Q6P3R8)
NLK = NLK (Homo sapiens, UniProt Q9UBE8)
PDPK1 = PDPK1 (Homo sapiens, UniProt O15530)
PHKG1 = PHKG1 (Homo sapiens, UniProt Q16816)
PHKG2 = PHKG2 (Homo sapiens, UniProt P15735)
PIK3CA(E545A) = PIK3CA(E545A) (Homo sapiens, UniProt P42336, E545A)
Sequence of PIK3CA(E545A) (P42336 whole entry E545A): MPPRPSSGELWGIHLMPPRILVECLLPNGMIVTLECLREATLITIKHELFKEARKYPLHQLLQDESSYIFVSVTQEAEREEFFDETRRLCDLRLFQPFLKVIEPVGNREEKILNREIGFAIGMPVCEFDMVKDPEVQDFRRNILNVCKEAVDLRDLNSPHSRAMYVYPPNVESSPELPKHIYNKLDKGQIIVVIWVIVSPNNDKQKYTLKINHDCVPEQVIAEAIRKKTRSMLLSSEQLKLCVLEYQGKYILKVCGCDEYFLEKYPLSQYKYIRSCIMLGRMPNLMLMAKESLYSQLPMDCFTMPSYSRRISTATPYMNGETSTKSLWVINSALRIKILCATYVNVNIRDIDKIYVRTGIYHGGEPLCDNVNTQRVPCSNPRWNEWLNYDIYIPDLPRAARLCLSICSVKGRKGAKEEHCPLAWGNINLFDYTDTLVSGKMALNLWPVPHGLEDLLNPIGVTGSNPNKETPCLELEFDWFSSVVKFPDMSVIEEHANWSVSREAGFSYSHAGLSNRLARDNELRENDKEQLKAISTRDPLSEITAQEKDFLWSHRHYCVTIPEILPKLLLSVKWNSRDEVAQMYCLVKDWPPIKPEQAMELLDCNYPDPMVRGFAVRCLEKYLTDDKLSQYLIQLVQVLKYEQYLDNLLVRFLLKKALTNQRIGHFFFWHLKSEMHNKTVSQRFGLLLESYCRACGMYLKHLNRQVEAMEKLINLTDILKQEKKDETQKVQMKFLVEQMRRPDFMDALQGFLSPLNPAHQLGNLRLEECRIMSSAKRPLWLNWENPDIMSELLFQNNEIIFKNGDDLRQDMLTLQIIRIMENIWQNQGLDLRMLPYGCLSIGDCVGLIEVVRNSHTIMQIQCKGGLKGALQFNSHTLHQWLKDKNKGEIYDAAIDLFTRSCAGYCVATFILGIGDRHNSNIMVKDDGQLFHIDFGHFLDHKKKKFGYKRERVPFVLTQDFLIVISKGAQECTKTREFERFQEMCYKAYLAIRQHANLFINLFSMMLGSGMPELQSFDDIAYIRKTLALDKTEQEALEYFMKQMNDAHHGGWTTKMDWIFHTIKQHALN

PIK3CA(I800L) = PIK3CA(I800L) (Homo sapiens, UniProt P42336, I800L)
PLK2 = PLK2 (Homo sapiens, UniProt Q9NYY3)
PRKCD = PRKCD (Homo sapiens, UniProt Q05655)
PRKCI = PRKCI (Homo sapiens, UniProt P41743)
PRKD3 = PRKD3 (Homo sapiens, UniProt O94806)
RET = RET (Homo sapiens, UniProt P07949)
RIPK5 = RIPK5 (Homo sapiens, UniProt Q6XUX3)
ROCK2 = ROCK2 (Homo sapiens, UniProt O75116)
Sequence of ROCK2 (O75116 whole entry): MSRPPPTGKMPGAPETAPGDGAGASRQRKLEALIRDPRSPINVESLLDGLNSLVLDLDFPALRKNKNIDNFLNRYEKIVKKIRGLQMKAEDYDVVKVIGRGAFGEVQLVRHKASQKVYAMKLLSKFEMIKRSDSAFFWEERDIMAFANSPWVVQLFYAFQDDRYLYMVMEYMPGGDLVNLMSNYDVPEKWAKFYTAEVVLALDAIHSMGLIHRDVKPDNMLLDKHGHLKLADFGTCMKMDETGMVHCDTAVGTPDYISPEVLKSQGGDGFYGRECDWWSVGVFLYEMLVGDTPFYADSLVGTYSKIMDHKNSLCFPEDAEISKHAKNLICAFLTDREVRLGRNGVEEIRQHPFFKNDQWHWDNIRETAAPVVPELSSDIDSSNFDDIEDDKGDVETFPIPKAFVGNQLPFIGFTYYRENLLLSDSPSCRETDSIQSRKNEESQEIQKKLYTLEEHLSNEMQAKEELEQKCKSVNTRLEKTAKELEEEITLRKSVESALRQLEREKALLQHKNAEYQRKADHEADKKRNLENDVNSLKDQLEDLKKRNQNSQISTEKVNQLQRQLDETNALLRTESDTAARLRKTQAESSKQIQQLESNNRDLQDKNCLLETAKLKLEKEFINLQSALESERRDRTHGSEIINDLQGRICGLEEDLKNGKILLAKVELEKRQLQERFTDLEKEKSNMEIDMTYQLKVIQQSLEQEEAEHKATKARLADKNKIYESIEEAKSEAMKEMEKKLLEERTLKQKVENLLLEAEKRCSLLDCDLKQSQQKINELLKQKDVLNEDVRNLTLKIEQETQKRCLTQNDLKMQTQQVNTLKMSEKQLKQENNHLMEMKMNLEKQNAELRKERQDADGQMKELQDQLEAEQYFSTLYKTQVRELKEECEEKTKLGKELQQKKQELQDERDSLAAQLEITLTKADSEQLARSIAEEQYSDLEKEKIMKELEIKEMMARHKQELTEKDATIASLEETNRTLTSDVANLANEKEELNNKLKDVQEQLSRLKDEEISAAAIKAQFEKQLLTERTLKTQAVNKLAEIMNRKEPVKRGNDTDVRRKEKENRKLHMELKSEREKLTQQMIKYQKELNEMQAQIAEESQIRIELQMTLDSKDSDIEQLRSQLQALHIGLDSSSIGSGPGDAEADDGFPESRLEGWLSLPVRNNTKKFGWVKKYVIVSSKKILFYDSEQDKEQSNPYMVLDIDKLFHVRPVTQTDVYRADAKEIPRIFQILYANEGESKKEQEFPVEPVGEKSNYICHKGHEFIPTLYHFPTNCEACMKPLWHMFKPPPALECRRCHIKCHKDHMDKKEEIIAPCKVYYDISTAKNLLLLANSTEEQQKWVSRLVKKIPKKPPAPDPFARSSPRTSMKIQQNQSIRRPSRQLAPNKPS

RPS6KA4 = RPS6KA4 (Homo sapiens, UniProt O75676)
Sequence of RPS6KA4 (O75676 whole entry): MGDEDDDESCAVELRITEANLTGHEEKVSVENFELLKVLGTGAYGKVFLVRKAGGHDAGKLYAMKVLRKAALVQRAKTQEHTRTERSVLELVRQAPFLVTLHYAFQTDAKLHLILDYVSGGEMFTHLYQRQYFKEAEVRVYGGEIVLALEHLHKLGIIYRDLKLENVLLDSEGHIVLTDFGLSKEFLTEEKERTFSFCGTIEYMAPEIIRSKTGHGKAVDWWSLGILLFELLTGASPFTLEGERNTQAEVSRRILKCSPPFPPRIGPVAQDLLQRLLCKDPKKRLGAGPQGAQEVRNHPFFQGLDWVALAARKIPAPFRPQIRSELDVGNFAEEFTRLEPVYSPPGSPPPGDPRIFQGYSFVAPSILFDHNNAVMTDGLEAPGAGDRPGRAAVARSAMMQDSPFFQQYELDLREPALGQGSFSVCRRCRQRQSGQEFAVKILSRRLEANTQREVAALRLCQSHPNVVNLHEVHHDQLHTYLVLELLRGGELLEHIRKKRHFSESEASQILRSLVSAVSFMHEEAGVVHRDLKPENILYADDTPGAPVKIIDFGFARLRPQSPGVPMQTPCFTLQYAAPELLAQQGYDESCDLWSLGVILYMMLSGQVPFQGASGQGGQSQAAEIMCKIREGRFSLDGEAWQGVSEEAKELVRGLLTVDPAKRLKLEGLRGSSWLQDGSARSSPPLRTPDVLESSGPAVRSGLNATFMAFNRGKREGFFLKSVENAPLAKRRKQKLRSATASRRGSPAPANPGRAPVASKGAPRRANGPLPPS

RSK1 = RSK1 (Homo sapiens, UniProt Q15418)
Sequence of RSK1 (Q15418 whole entry): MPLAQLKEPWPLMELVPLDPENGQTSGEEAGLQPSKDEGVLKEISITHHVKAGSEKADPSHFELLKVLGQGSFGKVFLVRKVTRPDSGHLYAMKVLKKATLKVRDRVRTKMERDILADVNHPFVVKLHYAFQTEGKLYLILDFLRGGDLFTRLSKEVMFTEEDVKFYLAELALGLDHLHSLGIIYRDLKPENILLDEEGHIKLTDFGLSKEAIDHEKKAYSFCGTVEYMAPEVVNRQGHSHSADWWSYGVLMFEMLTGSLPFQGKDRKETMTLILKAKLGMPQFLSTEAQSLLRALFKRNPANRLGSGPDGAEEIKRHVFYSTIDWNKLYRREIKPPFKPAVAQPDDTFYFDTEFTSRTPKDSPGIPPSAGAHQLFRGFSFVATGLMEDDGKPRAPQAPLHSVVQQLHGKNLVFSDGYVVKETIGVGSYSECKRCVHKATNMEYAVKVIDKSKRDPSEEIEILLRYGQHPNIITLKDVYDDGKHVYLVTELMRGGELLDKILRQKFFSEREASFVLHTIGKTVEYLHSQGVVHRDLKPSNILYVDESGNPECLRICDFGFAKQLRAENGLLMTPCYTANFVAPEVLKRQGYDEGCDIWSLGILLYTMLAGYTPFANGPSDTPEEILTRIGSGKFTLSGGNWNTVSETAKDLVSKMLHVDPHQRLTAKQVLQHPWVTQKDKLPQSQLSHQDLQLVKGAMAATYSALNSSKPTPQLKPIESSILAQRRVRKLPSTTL

RSK3 = RSK3 (Homo sapiens, UniProt Q15349)
Sequence of RSK3 (Q15349 whole entry): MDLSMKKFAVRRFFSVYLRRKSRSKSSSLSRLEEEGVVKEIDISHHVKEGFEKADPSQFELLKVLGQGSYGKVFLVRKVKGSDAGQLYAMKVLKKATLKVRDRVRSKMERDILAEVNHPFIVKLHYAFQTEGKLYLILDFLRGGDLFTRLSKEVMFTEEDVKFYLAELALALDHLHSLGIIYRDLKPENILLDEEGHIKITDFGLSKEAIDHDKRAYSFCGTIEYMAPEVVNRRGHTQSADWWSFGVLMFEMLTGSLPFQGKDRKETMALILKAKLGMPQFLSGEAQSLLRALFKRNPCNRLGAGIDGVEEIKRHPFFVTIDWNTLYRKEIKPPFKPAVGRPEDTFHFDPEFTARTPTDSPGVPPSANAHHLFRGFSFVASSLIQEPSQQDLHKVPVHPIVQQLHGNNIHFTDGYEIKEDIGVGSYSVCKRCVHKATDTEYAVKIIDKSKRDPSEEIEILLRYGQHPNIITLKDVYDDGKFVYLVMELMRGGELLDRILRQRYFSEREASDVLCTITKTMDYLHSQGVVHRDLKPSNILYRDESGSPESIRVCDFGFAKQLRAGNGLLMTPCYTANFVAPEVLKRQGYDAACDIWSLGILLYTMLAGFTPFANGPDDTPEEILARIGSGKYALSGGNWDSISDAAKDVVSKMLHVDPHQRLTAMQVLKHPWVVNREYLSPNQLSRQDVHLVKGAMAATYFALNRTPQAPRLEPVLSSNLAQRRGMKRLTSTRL

SLK = SLK (Homo sapiens, UniProt Q9H2G2)
SRPK1 = SRPK1 (Homo sapiens, UniProt Q96SB4)
SRPK2 = SRPK2 (Homo sapiens, UniProt P78362)
SYK = SYK (Homo sapiens, UniProt P43405)
TRKB = TRKB (Homo sapiens, UniProt Q16620)
ULK1 = ULK1 (Homo sapiens, UniProt O75385)
VRK2 = VRK2 (Homo sapiens, UniProt Q86Y07)
WEE1 = WEE1 (Homo sapiens, UniProt P30291)
YES = YES (Homo sapiens, UniProt P07947)
p38-delta = p38-delta (Homo sapiens, UniProt O15264)
[1] = read-out: HYJ-2-002-1 (1μM) % control
[2] = read-out: HYJ-2-002-1 (1μM) % control, Kin.Dom.1-N-terminal
[3] = read-out: HYJ-2-002-1 (1μM) % control, Kin.Dom.2-C-terminal
[4] = read-out: CPT-1-70-1 (1μM) % control
[5] = read-out: CPT-1-70-1 (1μM) % control, Kin.Dom.1-N-terminal
[6] = read-out: CPT-1-70-1 (1μM) % control, Kin.Dom.2-C-terminal

Sequence of PHKG1 (Q16816 whole entry): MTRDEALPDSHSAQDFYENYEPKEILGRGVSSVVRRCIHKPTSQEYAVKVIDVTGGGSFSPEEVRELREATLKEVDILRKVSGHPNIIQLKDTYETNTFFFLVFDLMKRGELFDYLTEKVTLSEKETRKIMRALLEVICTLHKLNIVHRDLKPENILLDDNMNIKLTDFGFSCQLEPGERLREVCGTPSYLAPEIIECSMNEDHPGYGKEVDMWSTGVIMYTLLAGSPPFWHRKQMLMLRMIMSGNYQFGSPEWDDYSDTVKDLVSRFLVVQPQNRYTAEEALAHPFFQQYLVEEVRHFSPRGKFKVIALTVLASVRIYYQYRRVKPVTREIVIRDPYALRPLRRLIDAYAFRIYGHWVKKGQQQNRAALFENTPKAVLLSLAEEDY

With `CCN1CCN(Cc2ccc(NC(=O)c3ccc(C)c(CCc4cnc5[nH]ccc5c4OC)c3)cc2C(F)(F)F)CC1` [HYJ-2-002-1] the remaining activity at 1 µM (MKK7; [1]) was 8.2%, the remaining activity at 1 µM (NDR1; [1]) was 100% and the remaining activity at 1 µM (NEK5; [1]) was 21%. The remaining activity at 1 µM (NLK; [1]) was 28%, the remaining activity at 1 µM (PDPK1; [1]) was 72% and the remaining activity at 1 µM (PHKG1; [1]) was 100%. It also gave a remaining activity at 1 µM (PHKG2; [1]) of 73%, a remaining activity at 1 µM (PIK3CA(E545A); [1]) of 100% and a remaining activity at 1 µM (PIK3CA(I800L); [1]) of 100%. For the same compound, the remaining activity at 1 µM (PLK2; [1]) was 100%, the remaining activity at 1 µM (PRKCD; [1]) was 78% and the remaining activity at 1 µM (PRKCI; [1]) was 73%. It also gave a remaining activity at 1 µM (PRKD3; [1]) of 67%, a remaining activity at 1 µM (RET; [1]) of 0.15% and a remaining activity at 1 µM (RIPK5; [1]) of 86%. The remaining activity at 1 µM (ROCK2; [1]) was 94%, the remaining activity at 1 µM (RPS6KA4; [2]) was 99% and the remaining activity at 1 µM (RPS6KA4; [3]) was 100%. The remaining activity at 1 µM (RSK1; [2]) was 96%, the remaining activity at 1 µM (RSK1; [3]) was 61% and the remaining activity at 1 µM (RSK3; [2]) was 42%. For the same compound, the remaining activity at 1 µM (RSK3; [3]) was 73%, the remaining activity at 1 µM (SLK; [1]) was 9.8% and the remaining activity at 1 µM (SRPK1; [1]) was 83%. The remaining activity at 1 µM (SRPK2; [1]) was 100%, the remaining activity at 1 µM (SYK; [1]) was 18% and the remaining activity at 1 µM (TRKB; [1]) was 4.2%. The remaining activity at 1 µM (ULK1; [1]) was 89%, the remaining activity at 1 µM (VRK2; [1]) was 100% and the remaining activity at 1 µM (WEE1; [1]) was 100%. For the same compound, the remaining activity at 1 µM (YES; [1]) was 0.55% and the remaining activity at 1 µM (p38-delta; [1]) was 66%.
`CN1CCN(c2ccc(Nc3nc(Oc4ccc(NC(=O)CCl)cc4)c4cc[nH]c4n3)cc2)CC1` [CPT1-70-1] was tested, and the remaining activity at 1 µM (MKK7; [4]) was 8.1%, the remaining activity at 1 µM (NDR1; [4]) was 37% and the remaining activity at 1 µM (NEK5; [4]) was 82%. It also gave a remaining activity at 1 µM (NLK; [4]) of 100%, a remaining activity at 1 µM (PDPK1; [4]) of 64% and a remaining activity at 1 µM (PHKG1; [4]) of 100%. For the same compound, the remaining activity at 1 µM (PHKG2; [4]) was 72%, the remaining activity at 1 µM (PIK3CA(E545A); [4]) was 79% and the remaining activity at 1 µM (PIK3CA(I800L); [4]) was 100%. It also gave a remaining activity at 1 µM (PLK2; [4]) of 78%, a remaining activity at 1 µM (PRKCD; [4]) of 100% and a remaining activity at 1 µM (PRKCI; [4]) of 65%. The remaining activity at 1 µM (PRKD3; [4]) was 54%, the remaining activity at 1 µM (RET; [4]) was 25% and the remaining activity at 1 µM (RIPK5; [4]) was 33%. The remaining activity at 1 µM (ROCK2; [4]) was 26%, the remaining activity at 1 µM (RPS6KA4; [5]) was 100% and the remaining activity at 1 µM (RPS6KA4; [6]) was 79%. For the same compound, the remaining activity at 1 µM (RSK1; [5]) was 72%, the remaining activity at 1 µM (RSK1; [6]) was 100% and the remaining activity at 1 µM (RSK3; [5]) was 66%. For the same compound, the remaining activity at 1 µM (RSK3; [6]) was 100%, the remaining activity at 1 µM (SLK; [4]) was 77% and the remaining activity at 1 µM (SRPK1; [4]) was 44%. For the same compound, the remaining activity at 1 µM (SRPK2; [4]) was 98%, the remaining activity at 1 µM (SYK; [4]) was 63% and the remaining activity at 1 µM (TRKB; [4]) was 28%. For the same compound, the remaining activity at 1 µM (ULK1; [4]) was 32%, the remaining activity at 1 µM (VRK2; [4]) was 100% and the remaining activity at 1 µM (WEE1; [4]) was 88%. It also gave a remaining activity at 1 µM (YES; [4]) of 17% and a remaining activity at 1 µM (p38-delta; [4]) of 100%.
